Test results: PubChem BioAssay (NCI)
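Method: 48-hour compound exposure of cells in 96-well plates, five concentrations, linear interpolation of endpoints. GI50 is the concentration that inhibits growth by half. TGI is the concentration that stops growth completely.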

Experiments:
Assay in all cases: growth of human tumour cells (NCI), 48 h
[1] = tested on: 786-0 renal
[2] = tested on: A498 renal
[3] = tested on: A549 NSCLC
[4] = tested on: ACHN renal
[5] = tested on: BT-549 breast
[6] = tested on: CAKI-1 renal
[7] = tested on: CCRF-CEM leukemia
[8] = tested on: COLO 205 colon
[9] = tested on: DU-145 prostate
[10] = tested on: EKVX NSCLC
[11] = tested on: HCC-2998 colon
[12] = tested on: HCT-116 colon
[13] = tested on: HCT-15 colon
[14] = tested on: HL-60(TB) leukemia
[15] = tested on: HOP-62 NSCLC
[16] = tested on: HOP-92 NSCLC
[17] = tested on: HS 578T breast
[18] = tested on: HT29 colon
[19] = tested on: IGROV1 ovarian
[20] = tested on: K-562 leukemia
[21] = tested on: KM12 colon
[22] = tested on: LOX IMVI melanoma
[23] = tested on: M14 melanoma
[24] = tested on: MALME-3M melanoma
[25] = tested on: MCF7 breast
[26] = tested on: MDA-MB-231 breast
[27] = tested on: MDA-MB-435
[28] = tested on: MDA-MB-468 breast
[29] = tested on: MOLT-4 leukemia
[30] = tested on: NCI-H226 lung
[31] = tested on: NCI-H23 lung
[32] = tested on: NCI-H460 lung
[33] = tested on: NCI-H522 lung
[34] = tested on: NCI/ADR-RES ovarian
[35] = tested on: OVCAR-3 ovarian
[36] = tested on: OVCAR-4 ovarian
[37] = tested on: OVCAR-5 ovarian
[38] = tested on: OVCAR-8 ovarian
[39] = tested on: PC-3 prostate
[40] = tested on: RPMI-8226 leukemia
[41] = tested on: RXF 393 renal
[42] = tested on: SF-268 CNS
[43] = tested on: SF-295 CNS
[44] = tested on: SF-539 CNS
[45] = tested on: SK-MEL-2 melanoma
[46] = tested on: SK-MEL-28 melanoma
[47] = tested on: SK-MEL-5 melanoma
[48] = tested on: SK-OV-3 ovarian
[49] = tested on: SN12C renal
[50] = tested on: SNB-19 CNS
[51] = tested on: SNB-75 CNS
[52] = tested on: SR leukemia
[53] = tested on: SW-620 colon
[54] = tested on: T-47D breast
[55] = tested on: TK-10 renal
[56] = tested on: U251 CNS
[57] = tested on: UACC-257 melanoma
[58] = tested on: UACC-62 melanoma
[59] = tested on: UO-31 renal

Cc1ccc(CNC(=O)Cc2ccc3c(c2)CN(C2CCC(=O)NC2=O)C3=O)cc1 (centres undefined)
GI50 [1]: 0.0202 µM | GI50 [2]: 0.0183 µM | TGI [2]: 0.648 µM | GI50 [3]: 0.0515 µM | TGI [3]: > 100 µM | GI50 [4]: 0.445 µM | TGI [4]: > 100 µM | GI50 [5]: < 0.01 µM | TGI [5]: < 0.0128 µM | GI50 [6]: 0.0251 µM | TGI [6]: > 100 µM | GI50 [7]: < 0.01 µM | TGI [7]: > 100 µM | GI50 [8]: < 0.01 µM | TGI [8]: 0.0545 µM | GI50 [9]: 1.09 µM | TGI [9]: > 100 µM | GI50 [10]: 0.384 µM | TGI [10]: > 100 µM | GI50 [11]: < 0.01 µM | TGI [11]: 0.258 µM | GI50 [12]: > 36.5 µM | TGI [12]: > 100 µM | GI50 [13]: 0.016 µM | TGI [13]: 0.888 µM | GI50 [14]: < 0.01 µM | TGI [14]: 2.74 µM | GI50 [15]: < 0.01 µM | TGI [15]: 0.11 µM | GI50 [16]: < 0.01 µM | TGI [16]: < 0.0196 µM | GI50 [17]: < 0.01 µM | TGI [17]: 0.267 µM | GI50 [18]: 0.0501 µM | TGI [18]: > 100 µM | GI50 [19]: < 0.01 µM | TGI [19]: 0.148 µM | GI50 [20]: 0.0515 µM | TGI [20]: > 100 µM | GI50 [21]: 0.0311 µM | TGI [21]: > 100 µM | GI50 [22]: > 71.6 µM | TGI [22]: > 100 µM | GI50 [23]: < 0.0131 µM | TGI [23]: 1.85 µM | GI50 [24]: < 0.01 µM | TGI [24]: < 0.0126 µM | GI50 [25]: 0.0217 µM | TGI [25]: > 100 µM | GI50 [26]: < 0.01 µM | GI50 [27]: 0.0436 µM | TGI [27]: > 100 µM | GI50 [28]: < 0.01 µM | GI50 [29]: < 0.01 µM | TGI [29]: > 100 µM | GI50 [30]: < 0.01 µM | TGI [30]: 1.03 µM | GI50 [31]: 5.09 µM | TGI [31]: > 100 µM | GI50 [32]: > 100 µM | TGI [32]: > 100 µM | GI50 [33]: 0.622 µM | TGI [33]: > 100 µM | GI50 [34]: 0.47 µM | TGI [34]: > 100 µM | GI50 [35]: 0.16 µM | TGI [35]: > 100 µM | GI50 [36]: 0.0321 µM | GI50 [37]: 0.0169 µM | TGI [37]: 1.78 µM | GI50 [38]: < 0.01 µM | GI50 [39]: < 0.01 µM | GI50 [40]: 0.0409 µM | TGI [40]: > 100 µM | GI50 [41]: 0.0248 µM | TGI [41]: 0.955 µM | GI50 [42]: 0.0299 µM | TGI [42]: > 100 µM | GI50 [43]: 0.046 µM | TGI [43]: > 100 µM | GI50 [44]: 0.0503 µM | TGI [44]: > 100 µM | GI50 [45]: 0.0206 µM | TGI [45]: 0.0945 µM | GI50 [46]: 0.0701 µM | TGI [46]: > 100 µM | GI50 [47]: 0.0148 µM | TGI [47]: 0.0594 µM | GI50 [48]: 0.077 µM | GI50 [49]: 0.0217 µM | GI50 [50]: < 0.0115 µM | GI50 [51]: < 0.01 µM | TGI [51]: 0.357 µM | GI50 [52]: 4.54 µM | TGI [52]: > 100 µM | GI50 [53]: < 0.01 µM | TGI [53]: > 100 µM | GI50 [54]: < 0.01 µM | TGI [54]: 0.0292 µM | GI50 [55]: 0.0953 µM | TGI [55]: > 100 µM | GI50 [56]: 0.375 µM | TGI [56]: > 100 µM | GI50 [57]: > 100 µM | TGI [57]: > 100 µM | GI50 [58]: 0.309 µM | TGI [58]: > 100 µM | GI50 [59]: 0.0191 µM | TGI [59]: 0.469 µM
